Where only a bound is given, the exact number is not on record here.

human α2δ-1 subunit of Cav2.2 calcium channel, sequence (P54289 25-1103): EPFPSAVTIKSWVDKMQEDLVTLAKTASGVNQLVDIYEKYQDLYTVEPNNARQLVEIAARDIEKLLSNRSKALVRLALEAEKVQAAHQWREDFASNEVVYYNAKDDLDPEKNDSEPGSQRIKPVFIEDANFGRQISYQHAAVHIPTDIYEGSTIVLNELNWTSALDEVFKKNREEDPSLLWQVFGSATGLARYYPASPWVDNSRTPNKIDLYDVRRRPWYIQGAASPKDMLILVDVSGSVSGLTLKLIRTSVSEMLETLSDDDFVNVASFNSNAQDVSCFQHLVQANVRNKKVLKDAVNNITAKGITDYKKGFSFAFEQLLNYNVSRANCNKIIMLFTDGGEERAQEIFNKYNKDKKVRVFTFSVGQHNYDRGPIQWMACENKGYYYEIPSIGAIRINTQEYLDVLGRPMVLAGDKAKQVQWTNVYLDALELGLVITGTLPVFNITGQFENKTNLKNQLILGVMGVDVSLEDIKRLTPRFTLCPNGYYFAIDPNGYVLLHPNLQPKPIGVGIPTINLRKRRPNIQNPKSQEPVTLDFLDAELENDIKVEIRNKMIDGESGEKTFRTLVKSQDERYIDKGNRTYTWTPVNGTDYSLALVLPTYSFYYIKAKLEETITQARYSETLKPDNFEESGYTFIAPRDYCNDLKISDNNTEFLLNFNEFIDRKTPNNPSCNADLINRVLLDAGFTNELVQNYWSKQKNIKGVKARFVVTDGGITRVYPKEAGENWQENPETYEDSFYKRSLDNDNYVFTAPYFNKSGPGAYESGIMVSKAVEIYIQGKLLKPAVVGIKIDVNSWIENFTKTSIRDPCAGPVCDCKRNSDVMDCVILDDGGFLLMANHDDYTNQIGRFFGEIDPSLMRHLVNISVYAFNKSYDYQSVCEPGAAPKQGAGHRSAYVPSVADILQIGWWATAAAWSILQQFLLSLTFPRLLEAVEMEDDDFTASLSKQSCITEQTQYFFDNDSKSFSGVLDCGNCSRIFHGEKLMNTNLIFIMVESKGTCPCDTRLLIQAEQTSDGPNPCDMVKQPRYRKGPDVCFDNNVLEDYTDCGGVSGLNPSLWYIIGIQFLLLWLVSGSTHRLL

One assay has as its target human α2δ-1 subunit of Cav2.2 calcium channel (Homo sapiens (Human), UniProt P54289). Description: Binding assay to human α2δ-1 subunit of Cav2.2 calcium channel ([3H]-Gabapentin).
Details: not given
As for the experimental part: Binding Assay to Human α2δ-1 Subunit of Cav2.2 Calcium Channel.
NSB (non specific binding) was measured by adding 10 μM pregabalin. After 60 min incubation at 27° C., binding reaction was terminated by filtering through Multiscreen GF/C (Millipore) presoaked in 0.5% polyethyleneimine in Vacuum Manifold Station, followed by 3 washes with ice-cold filtration buffer containing 50 mM Tris-HCl, pH 7.4.
Filter plates were dried at 60° C. for 1 hour and 30 μl of scintillation cocktail were added to each well before radioactivity reading.
The Ki is the equilibrium dissociation constant of an inhibitor or competing ligand from its target. As for `CCNc1ncc2c(n1)N(C)CCN(c1cccc(CO[C@@H](CCNC)c3cccs3)c1)C2=O` (stereo in doubt) [Example 213], the Ki was in the range of 500 to 3000 nM.

Still in this assay, the particulars now being: binding to α2δ-1, [3H]-Gabapentin; read-out: Ki (nM) α2δ-1.
For the compound `CSc1ncc2c(n1)N(C)CCN(c1cccc(OC(CCN(C)C(=O)OC(C)(C)C)c3ccccc3)c1)C2=O` (stereo not drawn) [Example 1, tert-Butyl methyl(3-(3-(9-methyl-2-(methylthio)-5-oxo-5,7,8,9-tetrahydro-6H-pyrimido[4,5-e][1,4]diazepin-6-yl)phenoxy)-3-phenylpropyl) carbamate], the Ki was more than 3000 nM.
Consider `CSc1ncc2c(n1)N(C)CCN(c1cccc(O[C@H](CCN(C)C(=O)OC(C)(C)C)c3ccccc3)c1)C2=O` [Example 2, tert-butyl (R)-methyl(3-(3-(9-methyl-2-(methylthio)-5-oxo-5,7,8,9-tetrahydro-6H-pyrimido[4,5-e][1,4]diazepin-6-yl)phenoxy)-3-phenylpropyl) carbamate], for which the Ki is more than 3000 nM.
Same read-out and setting: the same measure for `CSc1ncc2c(n1)N(C)CCN(c1cccc(O[C@@H](CCN(C)C(=O)OC(C)(C)C)c3ccccc3)c1)C2=O` [Example 3, tert-butyl (S)-methyl(3-(3-(9-methyl-2-(methylthio)-5-oxo-5,7,8,9-tetrahydro-6H-pyrimido[4,5-e][1,4]diazepin-6-yl)phenoxy)-3-phenylpropyl) carbamate]: more than 3000 nM; for `CSc1ncc2c(n1)N(C)CCN(c1cccc(OC(CN(C)C(=O)OC(C)(C)C)c3ccccc3)c1)C2=O` (stereo not drawn) [Example 4, tert-butyl methyl(2-(3-(9-methyl-2-(methylthio)-5-oxo-5,7,8,9-tetrahydro-6H-pyrimido[4,5-e][1,4]diazepin-6-yl)phenoxy)-2-phenylethyl) carbamate]: more than 3000 nM; for `CSc1ncc2c(n1)N(C)CCN(c1cccc(OC(CNC(=O)OC(C)(C)C)c3ccccc3)c1)C2=O` (stereo not drawn) [Example 5, tert-butyl (2-(3-(9-methyl-2-(methylthio)-5-oxo-5,7,8,9-tetrahydro-6H-pyrimido[4,5-e][1,4]diazepin-6-yl)phenoxy)-2-phenylethyl) carbamate]: more than 3000 nM.
As to `CSc1ncc2c(n1)N(C)CCN(c1cccc(OC(C)CN(C)C(=O)OC(C)(C)C)c1)C2=O` (stereo not drawn) [Example 6, tert-butyl methyl(2-(3-(9-methyl-2-(methylthio)-5-oxo-5,7,8,9-tetrahydro-6H-pyrimido[4,5-e][1,4]diazepin-6-yl)phenoxy)propyl) carbamate], the inhibition constant Ki was more than 3000 nM.
Take `CSc1ncc2c(n1)N(C)CCN(c1cccc(OC(CN(C)C(=O)OC(C)(C)C)C(C)C)c1)C2=O` (stereo not drawn) [Example 7, tert-butyl methyl(3-methyl-2-(3-(9-methyl-2-(methylthio)-5-oxo-5,7,8,9-tetrahydro-6H-pyrimido[4,5-e][1,4]diazepin-6-yl)phenoxy)butyl) carbamate]: the Ki was more than 3000 nM.
Regarding `CSc1ncc2c(n1)N(C)CCN(c1ccc(OC(CN(C)C(=O)OC(C)(C)C)c3ccccc3)cc1)C2=O` (stereo not drawn) [Example 8, tert-butyl methyl(2-(4-(9-methyl-2-(methylthio)-5-oxo-5,7,8,9-tetrahydro-6H-pyrimido[4,5-e][1,4]diazepin-6-yl)phenoxy)-2-phenylethyl) carbamate], the Ki is more than 3000 nM.
On the same count and under the same terms, the same measure for `CSc1ncc2c(n1)N(C)CCN(c1cccc(COC(CCN(C)C(=O)OC(C)(C)C)c3ccccc3)c1)C2=O` (stereo not drawn) [Example 9, tert-butyl methyl(3-((3-(9-methyl-2-(methylthio)-5-oxo-5,7,8,9-tetrahydro-6H-pyrimido[4,5-e][1,4]diazepin-6-yl)benzyl)oxy)-3-phenylpropyl) carbamate]: more than 3000 nM; for `CSc1ncc2c(n1)N(C)CCN(c1cccc(CO[C@H](CCN(C)C(=O)OC(C)(C)C)c3ccccc3)c1)C2=O` [Example 10, tert-butyl (R)-methyl(3-((3-(9-methyl-2-(methylthio)-5-oxo-5,7,8,9-tetrahydro-6H-pyrimido[4,5-e][1,4]diazepin-6-yl)benzyl)oxy)-3-phenylpropyl) carbamate]: more than 3000 nM; for `CSc1ncc2c(n1)N(C)CCN(c1cccc(CO[C@@H](CCN(C)C(=O)OC(C)(C)C)c3ccccc3)c1)C2=O` [Example 11, tert-butyl (S)-methyl(3-((3-(9-methyl-2-(methylthio)-5-oxo-5,7,8,9-tetrahydro-6H-pyrimido[4,5-e][1,4]diazepin-6-yl)benzyl)oxy)-3-phenylpropyl) carbamate]: more than 3000 nM.
For the compound `CSc1ncc2c(n1)N(C)CCN(c1cccc(OC(CCN(C)C(=O)OC(C)(C)C)c3cccs3)c1)C2=O` (stereo not drawn) [Example 12, tert-butyl methyl(3-(3-(9-methyl-2-(methylthio)-5-oxo-5,7,8,9-tetrahydro-6H-pyrimido[4,5-e][1,4]diazepin-6-yl)phenoxy)-3-(thiophen-2-yl)propyl) carbamate], the Ki is more than 3000 nM.
For the compound `CSc1ncc2c(n1)N(C)CCN(c1cccc(O[C@H](CCN(C)C(=O)OC(C)(C)C)c3cccs3)c1)C2=O` [Example 13, tert-butyl (R)-methyl(3-(3-(9-methyl-2-(methylthio)-5-oxo-5,7,8,9-tetrahydro-6H-pyrimido[4,5-e] [1,4]diazepin-6-yl)phenoxy)-3-(thiophen-2-yl)propyl) carbamate], the Ki is more than 3000 nM.
Consider `CSc1ncc2c(n1)N(C)CCN(c1cccc(O[C@@H](CCN(C)C(=O)OC(C)(C)C)c3cccs3)c1)C2=O` [Example 14, tert-butyl (S)-methyl(3-(3-(9-methyl-2-(methylthio)-5-oxo-5,7,8,9-tetrahydro-6H-pyrimido[4,5-e][1,4]diazepin-6-yl)phenoxy)-3-(thiophen-2-yl)propyl) carbamate], for which the inhibition constant (Ki) is more than 3000 nM.
Turning to `CSc1ncc2c(n1)N(C)CCN(c1cccc(COC(CCN(C)C(=O)OC(C)(C)C)c3cccs3)c1)C2=O` (stereo not drawn) [Example 15, tert-butyl methyl(3-((3-(9-methyl-2-(methylthio)-5-oxo-5,7,8,9-tetrahydro-6H-pyrimido[4,5-e][1,4]diazepin-6-yl)benzyl)oxy)-3-(thiophen-2-yl)propyl) carbamate], the Ki was more than 3000 nM.
Regarding `CSc1ncc2c(n1)N(C)CCN(c1cccc(CO[C@H](CCN(C)C(=O)OC(C)(C)C)c3cccs3)c1)C2=O` [Example 16, tert-butyl (R)-methyl(3-((3-(9-methyl-2-(methylthio)-5-oxo-5,7,8,9-tetrahydro-6H-pyrimido[4,5-e][1,4]diazepin-6-yl)benzyl)oxy)-3-(thiophen-2-yl)propyl) carbamate], the Ki was more than 3000 nM.
As to `CSc1ncc2c(n1)N(C)CCN(c1cccc(CO[C@@H](CCN(C)C(=O)OC(C)(C)C)c3cccs3)c1)C2=O` [Example 17, tert-butyl (S)-methyl(3-((3-(9-methyl-2-(methylthio)-5-oxo-5,7,8,9-tetrahydro-6H-pyrimido[4,5-e][1,4]diazepin-6-yl)benzyl)oxy)-3-(thiophen-2-yl)propyl) carbamate], the Ki was more than 3000 nM.
Take `CSc1ncc2c(n1)N(C)CCN(c1cccc(COCC(c3ccccc3)N(C)C(=O)OC(C)(C)C)c1)C2=O` (stereo not drawn) [Example 18, tert-butyl methyl(2-((3-(9-methyl-2-(methylthio)-5-oxo-5,7,8,9-tetrahydro-6H-pyrimido[4,5-e][1,4]diazepin-6-yl)benzyl)oxy)-1-phenylethyl) carbamate]: the Ki is more than 3000 nM.
As for `CSc1ncc2c(n1)N(C)CCN(c1cccc(COC(CN(C)C(=O)OCC[Si](C)(C)C)c3ccccc3)c1)C2=O` (stereo not drawn) [Example 19, 2-(trimethyl-silyl)ethyl methyl(2-((3-(9-methyl-2-(methylthio)-5-oxo-5,7,8,9-tetrahydro-6H-pyrimido[4,5-e][1,4]diazepin-6-yl)benzyl)oxy)-2-phenylethyl) carbamate], the Ki is more than 3000 nM.
Turning to `CSc1ncc2c(n1)N(C)CCN(c1cccc(OCCCN(C)C(=O)OC(C)(C)C)c1)C2=O` [Example 20, tert-butyl methyl(3-(3-(9-methyl-2-(methylthio)-5-oxo-5,7,8,9-tetrahydro-6H-pyrimido[4,5-e][1,4]diazepin-6-yl)phenoxy)propyl) carbamate], the Ki was more than 3000 nM.
Same read-out and setting: the same measure for `CSc1ncc2c(n1)N(C)CCN(c1cccc(OCCCN(Cc3ccccc3)C(=O)OC(C)(C)C)c1)C2=O` [Example 21, tert-butyl benzyl(3-(3-(9-methyl-2-(methylthio)-5-oxo-5,7,8,9-tetrahydro-6H-pyrimido[4,5-e][1,4]diazepin-6-yl)phenoxy)propyl) carbamate]: more than 3000 nM; for `CSc1ncc2c(n1)N(C)CCN(c1cccc(OCCN(C)C(=O)OC(C)(C)C)c1)C2=O` [Example 22, tert-butyl methyl(2-(3-(9-methyl-2-(methylthio)-5-oxo-5,7,8,9-tetrahydro-6H-pyrimido[4,5-e][1,4]diazepin-6-yl)phenoxy)ethyl) carbamate]: more than 3000 nM; for `CSc1ncc2c(n1)N(C)CCN(c1cccc(CCCN(C)C(=O)OC(C)(C)C)c1)C2=O` [Example 23, tert-butyl methyl(3-(3-(9-methyl-2-(methylthio)-5-oxo-5,7,8,9-tetrahydro-6H-pyrimido[4,5-e][1,4]diazepin-6-yl)phenyl)propyl) carbamate]: more than 3000 nM.
On to `CSc1ncc2c(n1)N(C)CCN(c1cccc(CCN(C)C(=O)OC(C)(C)C)c1)C2=O` [Example 24, tert-butyl methyl(3-(9-methyl-2-(methylthio)-5-oxo-5,7,8,9-tetrahydro-6H-pyrimido[4,5-e][1,4]diazepin-6-yl)phenethyl) carbamate], for which the Ki is more than 3000 nM.
`CSc1ncc2c(n1)N(C)CCN(c1cccc(C(C)(C)CN(C)C(=O)OC(C)(C)C)c1)C2=O` [Example 25, tert-butyl methyl(2-methyl-2-(3-(9-methyl-2-(methylthio)-5-oxo-5,7,8,9-tetrahydro-6H-pyrimido[4,5-e][1,4]diazepin-6-yl)phenyl)propyl) carbamate]: the inhibitory constant (Ki) was more than 3000 nM.

Still in this assay, the particulars now being: read-out: Ki (nM) α2δ-1; Table 2, dual compounds; [3H]-Gabapentin binding.
With `CCNc1ncc2c(n1)N(C)CCN(c1cccc(CO[C@@H](CCNC)c3cccs3)c1)C2=O` (stereo in doubt) [Example 213], the Ki lay in the range of 500 to 3000 nM.

Source of the values: patent US10590140B2, “Tetrahydropyrimidodiazepine and dihydropyridodiazepine compounds for treating pain and pain related conditions” (ESTEVE PHARMACEUTICALS, S.A., priority 2016, dated 2020).
